Assay results published in patent publication US6358885B1, “Substituted phenylheterocyclic herbicides” (Mississippi State University, priority 1992, dated 2002).

Experiments:
Test in all cases: Test B preemergence/postemergence greenhouse plant response rating 0 to 10
bedstraw = format: in vivo, Galium aparine; settings: for Plant response rating, Bedstraw: 0 to 10 scale
How it was run: (§1)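 Test chemicals, dissolved in a non-phytotoxic solvent, were applied to soil at planting and, at the same time, over foliage of seedlings at the one to four leaf stage.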

giant foxtail = format: in vivo, Setaria faberii; settings: for Plant response rating, Giant foxtail: 0 to 10 scale
How it was run: as §1

sorghum = format: in vivo, Sorghum bicolor; settings: for Plant response rating, Sorghum: 0 to 10 scale
How it was run: as §1

cotton = format: in vivo, Gossypium hirsutum; settings: for Plant response rating, Cotton: 0 to 10 scale
How it was run: as §1

cocklebur = format: in vivo, Xanthium pensylvanicum; settings: for Plant response rating, Cocklebur: 0 to 10 scale
How it was run: as §1

morningglory = format: in vivo, Ipomoea hederacea; settings: for Plant response rating, Morningglory: 0 to 10 scale
How it was run: as §1

rape = format: in vivo, Brassica napus; settings: for Plant response rating, Rape: 0 to 10 scale
How it was run: as §1

corn = format: in vivo, Zea mays; settings: for Plant response rating, Corn: 0 to 10 scale
How it was run: as §1

soybean = format: in vivo, Glycine max; settings: for Plant response rating, Soybean: 0 to 10 scale
How it was run: as §1

wheat = format: in vivo, Triticum aestivum; settings: for Plant response rating, Wheat: 0 to 10 scale
How it was run: as §1

lambsquarters = format: in vivo, Chenopodium album; settings: for Plant response rating, Lambsquarter: 0 to 10 scale
How it was run: as §1

chickweed = format: in vivo, Stellaria media; settings: for Plant response rating, Chickweed: 0 to 10 scale
How it was run: as §1

wild oat = format: in vivo, Avena fatua; settings: for Plant response rating, Wild oat: 0 to 10 scale
How it was run: as §1

rice = format: in vivo, Oryza sativa; settings: for Plant response rating, Rice: 0 to 10 scale
How it was run: as §1

wild buckwheat = format: in vivo, Polygonum convolvulus; settings: for Plant response rating, Wild buckwheat: 0 to 10 scale
How it was run: as §1

cheatgrass = format: in vivo, Bromus secalinus; settings: for Plant response rating, Cheatgrass: 0 to 10 scale
How it was run: as §1

velvetleaf = format: in vivo, Abutilon theophrasti; settings: for Plant response rating, Velvetleaf: 0 to 10 scale
How it was run: as §1

purple nutsedge = format: in vivo, Cyperus rotundus; settings: for Plant response rating, Nutsedge: 0 to 10 scale
How it was run: as §1

sugar beet = format: in vivo, Beta vulgaris; settings: for Plant response rating, Sugar beet: 0 to 10 scale
How it was run: as §1

blackgrass = format: in vivo, Alopecurus myosuroides; settings: for Plant response rating, Blackgrass: 0 to 10 scale
How it was run: as §1

barnyardgrass = format: in vivo, Echinochloa crus-galli; settings: for Plant response rating, Barnyardgrass: 0 to 10 scale
How it was run: as §1

crabgrass = format: in vivo, Digitaria spp.; settings: for Plant response rating, Crabgrass: 0 to 10 scale
How it was run: as §1

barley = format: in vivo, Hordeum vulgare; settings: for Plant response rating, Barley: 0 to 10 scale
How it was run: as §1

CCOC(=O)c1cc(-c2nn3c(c2Cl)CCCC3)c(F)cc1Cl [Compound 78]
5: Plant response rating, Wild oat (wild oat; Rate 200 g/ha, POSTEMERGENCE) | Plant response rating, Crabgrass (crabgrass; Rate 200 g/ha, POSTEMERGENCE) | Plant response rating, Barley (barley; Rate 200 g/ha, POSTEMERGENCE)
0: Plant response rating, Sorghum (sorghum; PREEMERGENCE, Rate 50 g/ha) | Plant response rating, Cotton (cotton; PREEMERGENCE, Rate 50 g/ha) | Plant response rating, Cocklebur (cocklebur; PREEMERGENCE, Rate 50 g/ha) | Plant response rating (0 to 10 scale), Cocklebur (cocklebur; PREEMERGENCE, Rate 200 g/ha) | Plant response rating, Morningglory (morningglory; PREEMERGENCE, Rate 50 g/ha) | Plant response rating, Corn (corn; PREEMERGENCE, Rate 50 g/ha) | Plant response rating (0 to 10 scale), Corn (corn; PREEMERGENCE, Rate 200 g/ha) | Plant response rating, Soybean (soybean; PREEMERGENCE, Rate 50 g/ha) | Plant response rating, Rice (rice; PREEMERGENCE, Rate 50 g/ha) | Plant response rating, Nutsedge (purple nutsedge; PREEMERGENCE, Rate 50 g/ha) | Plant response rating (0 to 10 scale), Nutsedge (purple nutsedge; PREEMERGENCE, Rate 200 g/ha) | Plant response rating (0 to 10 scale), Barley (barley; PREEMERGENCE, Rate 200 g/ha)
4: Plant response rating, Giant foxtail (giant foxtail; POSTEMERGENCE, Rate 50 g/ha) | Plant response rating, Sorghum (sorghum; POSTEMERGENCE, Rate 50 g/ha) | Plant response rating, Rape (rape; PREEMERGENCE, Rate 50 g/ha) | Plant response rating (0 to 10 scale), Wheat (wheat; PREEMERGENCE, Rate 200 g/ha) | Plant response rating (0 to 10 scale), Cheatgrass (cheatgrass; PREEMERGENCE, Rate 200 g/ha) | Plant response rating, Blackgrass (blackgrass; POSTEMERGENCE, Rate 50 g/ha) | Plant response rating, Blackgrass (blackgrass; PREEMERGENCE, Rate 50 g/ha) | Plant response rating, Crabgrass (crabgrass; POSTEMERGENCE, Rate 50 g/ha)
7: Plant response rating, Sorghum (sorghum; Rate 200 g/ha, POSTEMERGENCE) | Plant response rating, Corn (corn; POSTEMERGENCE, Rate 50 g/ha) | Plant response rating, Wheat (wheat; Rate 200 g/ha, POSTEMERGENCE) | Plant response rating, Cheatgrass (cheatgrass; Rate 200 g/ha, POSTEMERGENCE) | Plant response rating (0 to 10 scale), Blackgrass (blackgrass; PREEMERGENCE, Rate 200 g/ha) | Plant response rating, Blackgrass (blackgrass; Rate 200 g/ha, POSTEMERGENCE)
1: Plant response rating (0 to 10 scale), Soybean (soybean; PREEMERGENCE, Rate 200 g/ha) | Plant response rating, Nutsedge (purple nutsedge; POSTEMERGENCE, Rate 50 g/ha)
10: Plant response rating, Cotton (cotton; Rate 200 g/ha, POSTEMERGENCE) | Plant response rating, Cocklebur (cocklebur; Rate 200 g/ha, POSTEMERGENCE) | Plant response rating, Morningglory (morningglory; POSTEMERGENCE, Rate 50 g/ha) | Plant response rating (0 to 10 scale), Morningglory (morningglory; PREEMERGENCE, Rate 200 g/ha) | Plant response rating, Morningglory (morningglory; Rate 200 g/ha, POSTEMERGENCE) | Plant response rating, Rape (rape; Rate 200 g/ha, POSTEMERGENCE) | Plant response rating, Soybean (soybean; POSTEMERGENCE, Rate 50 g/ha) | Plant response rating, Lambsquarter (lambsquarters; POSTEMERGENCE, Rate 50 g/ha) | Plant response rating, Lambsquarter (lambsquarters; PREEMERGENCE, Rate 50 g/ha) | Plant response rating (0 to 10 scale), Lambsquarter (lambsquarters; PREEMERGENCE, Rate 200 g/ha) | Plant response rating, Lambsquarter (lambsquarters; Rate 200 g/ha, POSTEMERGENCE) | Plant response rating, Chickweed (chickweed; Rate 200 g/ha, POSTEMERGENCE) | Plant response rating, Wild buckwheat (wild buckwheat; POSTEMERGENCE, Rate 50 g/ha) | Plant response rating (0 to 10 scale), Wild buckwheat (wild buckwheat; PREEMERGENCE, Rate 200 g/ha) | Plant response rating, Wild buckwheat (wild buckwheat; Rate 200 g/ha, POSTEMERGENCE) | Plant response rating, Velvetleaf (velvetleaf; POSTEMERGENCE, Rate 50 g/ha) | Plant response rating, Velvetleaf (velvetleaf; PREEMERGENCE, Rate 50 g/ha) | Plant response rating (0 to 10 scale), Velvetleaf (velvetleaf; PREEMERGENCE, Rate 200 g/ha) | Plant response rating, Velvetleaf (velvetleaf; Rate 200 g/ha, POSTEMERGENCE) | Plant response rating, Sugar beet (sugar beet; POSTEMERGENCE, Rate 50 g/ha) | Plant response rating (0 to 10 scale), Sugar beet (sugar beet; PREEMERGENCE, Rate 200 g/ha) | Plant response rating, Sugar beet (sugar beet; Rate 200 g/ha, POSTEMERGENCE)
3: Plant response rating (0 to 10 scale), Sorghum (sorghum; PREEMERGENCE, Rate 200 g/ha) | Plant response rating, Wheat (wheat; PREEMERGENCE, Rate 50 g/ha) | Plant response rating, Wild oat (wild oat; POSTEMERGENCE, Rate 50 g/ha) | Plant response rating, Wild oat (wild oat; PREEMERGENCE, Rate 50 g/ha) | Plant response rating, Rice (rice; POSTEMERGENCE, Rate 50 g/ha) | Plant response rating, Barley (barley; POSTEMERGENCE, Rate 50 g/ha)
9: Plant response rating (0 to 10 scale), Bedstraw (bedstraw; PREEMERGENCE, Rate 200 g/ha) | Plant response rating, Bedstraw (bedstraw; Rate 200 g/ha, POSTEMERGENCE) | Plant response rating (0 to 10 scale), Giant foxtail (giant foxtail; PREEMERGENCE, Rate 200 g/ha) | Plant response rating, Cotton (cotton; POSTEMERGENCE, Rate 50 g/ha) | Plant response rating (0 to 10 scale), Rape (rape; PREEMERGENCE, Rate 200 g/ha) | Plant response rating, Corn (corn; Rate 200 g/ha, POSTEMERGENCE) | Plant response rating, Soybean (soybean; Rate 200 g/ha, POSTEMERGENCE) | Plant response rating, Wild buckwheat (wild buckwheat; PREEMERGENCE, Rate 50 g/ha) | Plant response rating, Sugar beet (sugar beet; PREEMERGENCE, Rate 50 g/ha) | Plant response rating, Barnyardgrass (barnyardgrass; Rate 200 g/ha, POSTEMERGENCE)
2: Plant response rating, Bedstraw (bedstraw; PREEMERGENCE, Rate 50 g/ha) | Plant response rating, Giant foxtail (giant foxtail; PREEMERGENCE, Rate 50 g/ha) | Plant response rating (0 to 10 scale), Cotton (cotton; PREEMERGENCE, Rate 200 g/ha) | Plant response rating (0 to 10 scale), Rice (rice; PREEMERGENCE, Rate 200 g/ha) | Plant response rating, Cheatgrass (cheatgrass; POSTEMERGENCE, Rate 50 g/ha) | Plant response rating, Cheatgrass (cheatgrass; PREEMERGENCE, Rate 50 g/ha) | Plant response rating, Nutsedge (purple nutsedge; Rate 200 g/ha, POSTEMERGENCE) | Plant response rating, Barnyardgrass (barnyardgrass; PREEMERGENCE, Rate 50 g/ha) | Plant response rating, Crabgrass (crabgrass; PREEMERGENCE, Rate 50 g/ha) | Plant response rating, Barley (barley; PREEMERGENCE, Rate 50 g/ha)
6: Plant response rating, Bedstraw (bedstraw; POSTEMERGENCE, Rate 50 g/ha) | Plant response rating, Giant foxtail (giant foxtail; Rate 200 g/ha, POSTEMERGENCE) | Plant response rating, Chickweed (chickweed; POSTEMERGENCE, Rate 50 g/ha) | Plant response rating, Chickweed (chickweed; PREEMERGENCE, Rate 50 g/ha) | Plant response rating (0 to 10 scale), Wild oat (wild oat; PREEMERGENCE, Rate 200 g/ha) | Plant response rating, Rice (rice; Rate 200 g/ha, POSTEMERGENCE) | Plant response rating (0 to 10 scale), Barnyardgrass (barnyardgrass; PREEMERGENCE, Rate 200 g/ha)
8: Plant response rating, Cocklebur (cocklebur; POSTEMERGENCE, Rate 50 g/ha) | Plant response rating, Rape (rape; POSTEMERGENCE, Rate 50 g/ha) | Plant response rating (0 to 10 scale), Chickweed (chickweed; PREEMERGENCE, Rate 200 g/ha) | Plant response rating, Barnyardgrass (barnyardgrass; POSTEMERGENCE, Rate 50 g/ha) | Plant response rating (0 to 10 scale), Crabgrass (crabgrass; PREEMERGENCE, Rate 200 g/ha)
